27 compounds from ChEMBL document CHEMBL1201862, “PubChem BioAssay data set” (2004) can be followed below.

Each structure is given as a SMILES string. Active and inactive are the calls of the source. For most assays here, no stated cut-off is given here; in the data, actives have a measured EC50 and inactives only a lower limit. Where only a bound is given, the exact number is not on record here.

The target in assay [1] is T1, Heat shock factor protein 1 (Mus musculus, UniProt P38532).
T1 sequence (P38532 whole entry): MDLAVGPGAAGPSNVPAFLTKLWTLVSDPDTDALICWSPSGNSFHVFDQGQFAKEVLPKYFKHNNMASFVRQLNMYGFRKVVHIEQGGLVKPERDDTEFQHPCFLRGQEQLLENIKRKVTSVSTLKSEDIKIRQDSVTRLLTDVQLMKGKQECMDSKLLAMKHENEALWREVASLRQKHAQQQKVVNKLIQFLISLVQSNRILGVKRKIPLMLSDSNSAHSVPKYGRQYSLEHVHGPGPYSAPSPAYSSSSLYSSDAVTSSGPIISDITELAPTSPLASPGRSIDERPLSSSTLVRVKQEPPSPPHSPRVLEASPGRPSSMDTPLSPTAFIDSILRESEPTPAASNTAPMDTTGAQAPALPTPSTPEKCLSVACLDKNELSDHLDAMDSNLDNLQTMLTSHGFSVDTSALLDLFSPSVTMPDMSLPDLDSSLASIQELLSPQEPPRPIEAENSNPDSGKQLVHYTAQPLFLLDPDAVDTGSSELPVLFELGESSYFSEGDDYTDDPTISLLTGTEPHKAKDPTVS
The experiment in a line: enhancement of HSF1-driven luciferase signal – cell-based, NIH3T3, luminescence, dose retest, confirmation (AID 435004).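 Further: stress induced by proteasome inhibitor MG132 added 30 min after compound; luciferase reporter driven by HSF1 response element in NIH3T3 cells; actives raise luminescence as potentiators of the MG132 stress response.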 In kind it is functional.

In assay [2] the target is T2, Streptokinase A (Streptococcus pyogenes serotype M1, UniProt P10520).
T2 sequence (P10520 whole entry): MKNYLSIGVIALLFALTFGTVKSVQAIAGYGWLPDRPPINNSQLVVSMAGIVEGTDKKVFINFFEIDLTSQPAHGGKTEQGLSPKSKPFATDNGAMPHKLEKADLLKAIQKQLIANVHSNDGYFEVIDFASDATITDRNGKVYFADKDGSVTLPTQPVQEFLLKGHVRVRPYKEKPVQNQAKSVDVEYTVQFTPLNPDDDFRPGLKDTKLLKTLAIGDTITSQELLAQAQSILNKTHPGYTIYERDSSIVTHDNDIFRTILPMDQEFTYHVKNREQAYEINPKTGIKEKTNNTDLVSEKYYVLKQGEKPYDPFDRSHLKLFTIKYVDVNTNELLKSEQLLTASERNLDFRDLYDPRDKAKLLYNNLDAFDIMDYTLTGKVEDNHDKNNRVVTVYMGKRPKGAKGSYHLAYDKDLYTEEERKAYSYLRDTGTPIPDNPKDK
The experiment in a line: viability-normalized secreted streptokinase activity reduction – plasminogen activation absorbance, OD405, dose response (AID 1914).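 Further: secreted streptokinase activity via plasminogen activation per viability signal from cell pellet.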 Format: functional, Streptococcus pyogenes M1 GAS.

The test system of assay [3] is Streptococcus sp. 'group A'. The experiment in a line: Streptococcus pyogenes SK(-)GAS viability under kanamycin – luminescence, BacTiterGlo, confirmation, counter-screen for streptokinase expression inhibitor project, dose response (AID 1900). In kind it is functional, organism-based. On the technique in general: A counterscreen serves to expose hits that act by an unwanted route or on another target.

Assay [4] deals with Streptococcus. The experiment in a line: GAS UMAA2166 growth inhibition – luminescence, BacTiterGlo, counter-screen for streptokinase expression inhibitor project, dose response (AID 1915).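 Further: potency for reduction of bacterial viability or growth.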 In kind it is functional, organism-based.
Assay [5] in a line: Luminescence Cell-Based Dose Retest to Confirm Inhibitors of Cancer Stem Cells. [Related pubchem assays (depositor defined):AID2717, AID2721]. Format: functional, Homo sapiens.
Assay [6] deals with T3, Protein RecA (Mycobacterium tuberculosis, UniProt P9WHJ3).
T3 sequence (P9WHJ3 whole entry): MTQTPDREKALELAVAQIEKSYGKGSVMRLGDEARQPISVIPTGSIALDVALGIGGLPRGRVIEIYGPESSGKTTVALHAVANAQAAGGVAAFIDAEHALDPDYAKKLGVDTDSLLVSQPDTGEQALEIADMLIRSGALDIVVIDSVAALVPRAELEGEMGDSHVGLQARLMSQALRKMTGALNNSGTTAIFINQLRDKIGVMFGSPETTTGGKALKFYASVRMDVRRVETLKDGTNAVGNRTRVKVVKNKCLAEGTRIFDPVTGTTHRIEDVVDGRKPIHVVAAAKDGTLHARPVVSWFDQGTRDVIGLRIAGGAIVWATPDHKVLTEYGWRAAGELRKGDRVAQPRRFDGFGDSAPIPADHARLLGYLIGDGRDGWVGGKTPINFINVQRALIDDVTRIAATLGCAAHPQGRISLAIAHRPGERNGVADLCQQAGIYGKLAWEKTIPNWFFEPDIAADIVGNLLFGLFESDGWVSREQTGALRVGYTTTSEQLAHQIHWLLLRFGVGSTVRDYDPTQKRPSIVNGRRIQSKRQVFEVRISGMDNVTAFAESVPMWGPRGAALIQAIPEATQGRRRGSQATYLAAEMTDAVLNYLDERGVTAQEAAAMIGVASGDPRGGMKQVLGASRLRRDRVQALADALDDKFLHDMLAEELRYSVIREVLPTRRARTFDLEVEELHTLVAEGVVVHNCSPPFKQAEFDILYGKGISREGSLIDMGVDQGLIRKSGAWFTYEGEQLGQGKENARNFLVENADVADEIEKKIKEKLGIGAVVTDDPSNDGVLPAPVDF
The experiment in a line: Fluorescence Cell-Free Homogeneous Dose Retest to Identify Inhibitors of RecA-Intein Splicing Activity. [Related pubchem assays (depositor defined):AID2097, AID2223, AID489010, AID492950]. In kind it is functional.

Assay [7] deals with T4, Replicative DNA helicase DnaB (Mycobacterium tuberculosis, UniProt P9WMR3).
T4 sequence (P9WMR3 whole entry): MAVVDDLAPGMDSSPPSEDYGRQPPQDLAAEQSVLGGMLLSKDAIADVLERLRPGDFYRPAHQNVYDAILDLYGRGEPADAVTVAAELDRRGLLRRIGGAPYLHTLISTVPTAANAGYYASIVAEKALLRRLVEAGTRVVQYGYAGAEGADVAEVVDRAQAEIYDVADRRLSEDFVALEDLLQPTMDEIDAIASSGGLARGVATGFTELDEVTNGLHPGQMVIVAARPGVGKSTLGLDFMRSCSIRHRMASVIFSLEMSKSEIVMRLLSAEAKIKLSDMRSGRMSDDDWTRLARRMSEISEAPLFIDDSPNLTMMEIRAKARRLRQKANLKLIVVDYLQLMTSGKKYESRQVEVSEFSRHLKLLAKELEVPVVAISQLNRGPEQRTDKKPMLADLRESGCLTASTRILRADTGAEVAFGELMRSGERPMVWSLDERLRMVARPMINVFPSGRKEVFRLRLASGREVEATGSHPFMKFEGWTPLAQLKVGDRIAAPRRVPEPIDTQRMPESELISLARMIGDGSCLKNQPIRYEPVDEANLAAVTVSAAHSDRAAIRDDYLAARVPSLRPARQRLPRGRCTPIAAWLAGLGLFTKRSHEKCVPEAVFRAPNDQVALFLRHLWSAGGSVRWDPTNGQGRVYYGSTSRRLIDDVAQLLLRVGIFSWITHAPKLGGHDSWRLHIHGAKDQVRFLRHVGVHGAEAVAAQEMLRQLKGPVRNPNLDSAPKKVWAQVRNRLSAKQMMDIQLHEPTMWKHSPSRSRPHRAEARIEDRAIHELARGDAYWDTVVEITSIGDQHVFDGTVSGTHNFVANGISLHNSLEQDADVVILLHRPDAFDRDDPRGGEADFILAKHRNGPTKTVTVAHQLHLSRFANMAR
As to the kind of experiment: DnaB intein splicing inhibitors, dose response, biochemical, cell-free fluorescence (AID 449749). Format: functional.

Assay [8] relates to INS1. The experiment in a line: INS-1E survival protection against cytokine death – cell-based, luminescence, retest, dose response (AID 449756).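 Further: cell death triggered by IL-1 beta plus TNF-alpha plus IFN-gamma mixture; protective hits raise ATP signal compared with cytokine alone wells.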 Format: functional. The following applies: Rattus norvegicus.
Assay [9] deals with T5, Cytochrome P450 1A2 (Homo sapiens, UniProt P05177).
T5 sequence (P05177 whole entry): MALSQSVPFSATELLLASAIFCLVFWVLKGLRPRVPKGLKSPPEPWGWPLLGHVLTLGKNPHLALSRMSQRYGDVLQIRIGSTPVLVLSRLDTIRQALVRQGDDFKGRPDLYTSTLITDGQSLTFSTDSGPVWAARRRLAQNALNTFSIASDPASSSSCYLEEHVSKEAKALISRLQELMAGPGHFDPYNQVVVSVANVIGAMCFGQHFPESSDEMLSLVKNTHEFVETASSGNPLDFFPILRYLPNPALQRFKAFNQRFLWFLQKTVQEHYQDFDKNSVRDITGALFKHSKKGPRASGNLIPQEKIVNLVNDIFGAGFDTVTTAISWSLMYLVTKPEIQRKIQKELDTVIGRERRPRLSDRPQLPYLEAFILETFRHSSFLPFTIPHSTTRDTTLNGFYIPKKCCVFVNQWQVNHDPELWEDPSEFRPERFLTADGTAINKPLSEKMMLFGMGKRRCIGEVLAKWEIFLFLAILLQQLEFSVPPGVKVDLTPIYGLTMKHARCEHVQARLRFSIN

By EC50 is commonly meant the concentration that produces a half-maximal response. In the case of `CN1CCN(Cc2c(O)ccc3cc(Br)ccc23)CC1`, the EC50 in assay [1] is 11.2 µM (active). On the same count and under the same terms, in the case of `CCOC(=O)N1CCN(C(=O)CS(=O)(=O)c2cn(Cc3ccc(F)cc3)c3ccccc23)CC1` it was > 260 µM (inactive). Still for that read-out and setting: in the case of `COc1ccc(C2N(C(=O)CN3CCCC3)CCCN2S(=O)(=O)c2ccccc2)cc1` (centres undefined) it was > 260 µM (inactive).

Usually AC50 stands for the concentration giving half of the maximal activity seen. Regarding `O=c1cc(-c2ccccc2)[nH]n1-c1nc2ccccc2s1`, the results for the EC50 in assay [2], in assay [3] and in [4] were > 150 µM (not active), 2.43 µM (active) and 10.3 µM (active), respectively. The AC50 in assay [5] (Homo sapiens) was 2.45 µM (active). Take `CCCOC(=O)c1ccc(Oc2c[nH]nc2-c2ccc(O)cc2O)cc1`: the EC50 in [2] is > 150 µM (not active); in [1] it was > 260 µM (inactive); in assay [3], > 150 µM (not active); in assay [4], > 150 µM (not active).

For the compound `Cc1ccc(S(=O)(=O)c2c(C)cc(C)nc2N2CCCCC2)cc1`, in assay [1], the EC50 is > 260 µM (inactive). Consider `CCN(CC)CCOc1ccc(/C(=C(/Cl)c2ccccc2)c2ccccc2)cc1` [CLOMIPHENE], for which the EC50 in [1] was 129 µM (active); in [6] it was 12.4 µM (active). In addition, the values for the AC50 in [7] and in assay [5] were 4.34 µM (active) and 1.35 µM (active), respectively. As to `CCCc1nc2oc3cc(OC)ccc3c(=O)c2c(=O)n1CCc1ccccc1`, in assay [1], the EC50 is > 260 µM (inactive). Still for that read-out and setting: in the case of `O=C(CN1C(=O)NC2(CCCC2)C1=O)NCCN1C(=O)S/C(=C\c2ccccc2F)C1=O` it was > 260 µM (inactive). `O=C(Nc1ccc(Cl)cc1)Nc1csc([N+](=O)[O-])c1`: the EC50 in assay [1] was 31.4 µM (active). Moreover, the AC50 in [8] was 7.03 µM (active). `FC(F)(F)c1ccc(Sc2nnc(-c3cccs3)n2CC2CCCO2)nc1` (centres undefined): the EC50 in assay [1] was > 260 µM (inactive).

As to `CC(C)c1ccc(C2NC(=O)c3ccccc3O2)cc1` (centres undefined), the EC50 in assay [1] was 21.2 µM (active). For `CC(Oc1ccc(Cl)cc1)C(=O)/C=C/N(C)C` (centres undefined), the EC50 in [1] was > 260 µM (inactive). The AC50 in assay [9] is 15.8 µM (inconclusive).

As to `COc1ccc(NC(=O)COC(=O)/C=C/C(=O)OCC(=O)Nc2ccc(OC)c(Cl)c2)cc1Cl`, the EC50 in assay [1] was 6.53 µM (active). The same measure, in the same setting: in the case of `CCC(NC(=O)/C(=C\c1ccc2c(c1)OCO2)NC(C)=O)C(=O)O` (centres undefined) it was > 260 µM (inactive). In the case of `O=C1c2ccccc2C(=O)N1CCC(=O)N1CCCc2ccccc21`, in assay [1], the EC50 was > 260 µM (inactive). Same read-out and setting: in the case of `CNc1c(NS(=O)(=O)c2ccc(F)c(Cl)c2)c(=O)oc2ccccc12` it was > 260 µM (inactive); in that of `CCc1cc2c(SCC#N)ncnc2s1`, > 260 µM (inactive). On to `CC[C@@H]1CC=C[C@H]2[C@H]1C(=O)N(Cc1ccccc1)[C@H]2c1ccc(OC)c(Cl)c1`, for which the EC50 was 4.05 µM (active) in assay [2], 6.67 µM (active) in assay [3] and 16 µM (active) in assay [4]. Moreover, the AC50 in [5] (Homo sapiens) is 6.12 µM (active). Take `COc1ccc2[nH]c(C)c(CCNc3ccc(C(F)(F)F)cc3[N+](=O)[O-])c2c1`: the EC50 in [1] is > 260 µM (inactive). Same read-out and setting: with `O=C(CN1c2ccccc2S(=O)(=O)c2ccccc21)NCc1ccc(F)cc1` the figure was > 260 µM (inactive); with `O=c1c2ccccc2[nH]c(=S)n1CCC1=CCCCC1`, > 260 µM (inactive); with `C=CCNC(=O)c1c(N)n(Cc2ccco2)c2nc3ccccc3nc12`, 43.4 µM (active). Still for that read-out and setting: in the case of `Cc1ccc(CSc2nc3ccccc3c(=O)n2CCCC(=O)NCc2ccco2)cc1` it was > 260 µM (inactive); in that of `COC(=O)Cn1c2ccc(OC)cc2c2nc(C)sc21`, > 260 µM (inactive). As to `O=c1cc(N2CCCCC2)c(-c2ccccc2)nn1Cc1ccc(Cl)cc1Cl`, the concentration for a half-maximal effect (EC50) was > 150 µM (not active) in assay [2], 3.19 µM (active) in assay [3] and 8.6 µM (active) in [4]. In addition, in assay [5] (Homo sapiens), the AC50 is 1.65 µM (active). In the case of `Cc1nc(S(=O)(=O)c2ccc(Cl)cc2)c(NCc2ccccc2)o1`, in assay [1], the EC50 is > 260 µM (inactive).
